Experimental data: patent US20260344668A1, “PHENYLPYRAZOLE COMPOUND, AND PLANT DISEASE CONTROL METHOD” (priority 2022, published 2026)

How the values were obtained:
Septoria tritici = test: Test Example 10 Control Test Against Wheat Leaf Blotch (pot test); assay type: in vivo; details: 200 ppm foliage spray, wheat (Apogee), inoculated after 4 days
Procedure: (§1) The term of “non-treated well” in Test Example 4, Test Example 5, and Test Example 6 represents a well wherein a test was carried out under the same conditions as those described in each Test Example except for dispensing DMSO instead of a diluted solution with DMSO comprising the Present compound. Also, the term of “non-treated” in Test Examples 15 to 17 represents a test which was carried out under the same conditions as those described in each Test Example except for dispensing DMSO instead of a diluted solution with DMSO comprising the Present compound. Also, the term of “non-treated leaf disk” in Test Example 7 represents a leaf disk wherein a test was carried out under the same conditions as those described in the Test Example except for dispensing DMSO instead of a diluted solution with DMSO comprising the Present compound. Also, the term of “non-treated” in Test Example 10 and Test Example 11 means that a diluted solution with water of a formulation comprising the Present compound was not sprayed.
A plastic pot was filled with soil, wheat (cultivar: Apogee) was seeded thereto, and cultured in a greenhouse for 10 days. […]

Phakopsora pachyrhizi [1] = test: Test Example 16 Control Test Against Soybean Rust Fungus (spore germination, petri dish); assay type: cell-based; details: treatment concentration 10 ppm, 23° C., 1 day
Procedure: as §1
An agar medium (agar concentration: 1.0%) (3 mL) was placed in a plastic petri dish having a diameter of 3.5 cm, and solidified. Each Present compound was diluted with DMSO in such a way that the resulting diluted solution containing 10000 ppm of the compound, and said solution (1 μL) and an aqueous suspension (1.0×10^4/mL) (999 μL) of spores of Phakopsora pachyrhizi to which spores of Phakopsora pachyrhizi were suspended were mixed, and then the resulting mixture was dispensed into the plastic petri dish. This plastic petri dish was cultured at 23° C. for 1 day, and then germinated spores of Phakopsora pachyrhizi were counted. As a result, when the treatment concentration was 10 ppm, and any one of the Present compound 9, 10, 28, 29, or 32 was used as the test compound to carry out the test, the number of germinated spores in each plastic petri dish using the above each Present compound as the test compound was 50% or less relative to the number of germinated spores in the non-treated plastic petri dish.

[2] = system: soybean rust fungus (Phakopsora pachyrhizi) having an amino acid substitution of F129L in a mitochondrial cytochrome b protein; test: Test Example 7 Control Test Against Soybean Rust (leaf disk); assay type: in vivo; details: 200 ppm, 10 μL per soybean leaf disk (cultivar: Kurosengoku), inoculated after 1 day
Procedure, shortened: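 Soybean (Kurosengoku) leaf disks of 1 cm on 1.2% agar were sprayed with compound in a DMSO/xylene/Sorpol emulsion diluted in water to a prescribed concentration. One day later they were spray-inoculated with F129L cytochrome b mutant P. pachyrhizi spores (1.0×10^5/mL) and kept at 23 °C, 60% humidity, 6 h light, for about 13 days. Lesion area was compared with DMSO-treated disks.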

Phakopsora pachyrhizi [3] = test: Test Example 11 Control Test Against Soybean Rust (pot test, spraying before inoculation); assay type: in vivo; details: 200 ppm foliage spray, soybeans (Kurosengoku), inoculated after 2 to 5 days
Procedure, shortened: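 Soybeans (cv. Kurosengoku), grown 10–14 days in pots, foliar-sprayed with formulated compound at 200 ppm, inoculated 2–5 days later with Phakopsora pachyrhizi spores. Kept humid 1–2 days at 23 °C day/20 °C night, then greenhouse 12 days; lesion area scored against unsprayed plants.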

Botrytis cinerea = test: Test Example 4 Control Test Against Cucumber Botrytis Rot Fungus (96 well titer plate growth); assay type: cell-based; details: 1 μL of 150 ppm DMSO solution + 150 μL complete medium, 18° C., 4 days, absorbance at 550 nm
Procedure: The term of “non-treated well” in Test Example 4, Test Example 5, and Test Example 6 represents a well wherein a test was carried out under the same conditions as those described in each Test Example except for dispensing DMSO instead of a diluted solution with DMSO comprising the Present compound. Also, the term of “non-treated” in Test Examples 15 to 17 represents a test which was carried out under the same conditions as those described in each Test Example except for dispensing DMSO instead of a diluted solution with DMSO comprising the Present compound. Also, the term of “non-treated leaf disk” in Test Example 7 represents a leaf disk wherein a test was carried out under the same conditions as those described in the Test Example except for dispensing DMSO instead of a diluted solution with DMSO comprising the Present compound. […]
The Present compound 24 was diluted with DMSO to obtain a diluted solution containing 150 ppm of the compound, and 1 μL of the diluted solution was dispensed into a titer plate (96 well), and thereto was then dispensed 150 μL of a complete medium to which spores of Botrytis cinerea were inoculated in advance. This plate was cultured at 18° C. for 4 days, thereby allowing Botrytis cinerea to undergo proliferation, and the absorbance at 550 nm of each well of the titer plate was then measured to determine a degree of growth of Botrytis cinerea. […]

Phakopsora pachyrhizi [4] = test: Test Example 17 Control Test Against Soybean Rust Fungus (spore germination, petri dish); assay type: cell-based; details: method according to Test Example 16
Procedure: as §1
An agar medium (agar concentration: 1.0%) (3 mL) was placed in a plastic petri dish having a diameter of 3.5 cm, and solidified. […] This plastic petri dish was cultured at 23° C. for 1 day, and then germinated spores of Phakopsora pachyrhizi were counted. […]

Phakopsora pachyrhizi [5] = test: Test Example 15 Control Test Against Soybean Rust Fungus (spore germination, 96 well titer plate); assay type: cell-based; details: treatment concentration 1 ppm, 23° C., several hours
Procedure, shortened: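 Compound in DMSO was added to an aqueous Phakopsora pachyrhizi spore suspension (1.0×10^4/mL) and incubated several hours at 23° C. Germinated spores were counted relative to DMSO-only wells.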

Cochliobolus miyabeanus = test: Test Example 6 Control Test Against Rice Brown Spot Fungus (96 well titer plate growth); assay type: cell-based; details: 1 μL of 150 ppm DMSO solution + 150 μL YB liquid medium, 23° C., 3 days, absorbance at 550 nm
Procedure: as §1
Each of the Present compound 17, 33, 36, 37, 39, 40, 41, 42, 43, 44, 48, 49, 50, 51, 52, 53, 62, 68, 69, 70, 71, 76, 77, 79, 80, 81, 82, 83, 84, or 97 was diluted with DMSO to obtain a diluted solution containing 150 ppm of each compound, and 1 μL of the diluted solution was dispensed into a titer plate (96 well), and thereto was then dispensed 150 μL of a YB liquid medium to which spores of Cochliobolus miyabeanus were inoculated in advance. This plate was cultured at 23° C. for 3 days, thereby allowing Cochliobolus miyabeanus to undergo proliferation, and the absorbance at 550 nm of each well of the titer plate was then measured to determine a degree of growth of Cochliobolus miyabeanus. As a result, the degree of growth in the well treated with each of the above Present compounds was 50% or less relative to the degree of growth in the non-treated well.

Cladosporium carpophilum = test: Test Example 5 Control Test Against Peach Scab Fungus (96 well titer plate growth); assay type: cell-based; details: 1 μL of 150 ppm DMSO solution + 150 μL PDB medium, 18° C., 5 days, absorbance at 550 nm
Procedure: as §1
Each of the Present compound 79, 80, 81, 89, 92, 93, 96, or 99 was diluted with DMSO to obtain a diluted solution containing 150 ppm of each compound, and 1 μL of the diluted solution was dispensed into a titer plate (96 well), and thereto was then dispensed 150 μL of a potato dextrose broth medium (PDB medium) to which spores of Cladosporium carpophilum were inoculated in advance. This plate was cultured at 18° C. for 5 days, thereby allowing Cladosporium carpophilum to undergo proliferation, and the absorbance at 550 nm of each well of the titer plate was then measured to determine a degree of growth of Cladosporium carpophilum. As a result, the degree of growth in the well treated with each of the above Present compound was 50% or less relative to the degree of growth in the non-treated well.

SMILES | lesion area relative to the lesion area of non-treated leaf disk [2] [%] | lesion area relative to the lesion area in the non-treated soybeans (Phakopsora pachyrhizi [3]) [%] | number of germinated spores relative to the non-treated well (Phakopsora pachyrhizi [5]) [%] | degree of growth relative to the degree of growth in the non-treated well (Cladosporium carpophilum) [%] | further results
O=S(=O)(c1ccccc1)n1ccc(-c2ccc(Cl)cc2)n1 [compound 4] | – | – | – | – | lesion area relative to the lesion area in the non-treated wheat (Septoria tritici): ≤ 30%
O=S(=O)(c1ccccc1)n1ccc(-c2cc(F)c(Br)c(F)c2)n1 [compound 9] | ≤ 30 | ≤ 30 | – | – | number of germinated spores relative to the non-treated plastic petri dish (Phakopsora pachyrhizi [1]): ≤ 50%
O=S(=O)(c1cccnc1)n1ccc(-c2cc(F)c(Br)c(F)c2)n1 [compound 10] | ≤ 30 | ≤ 30 | – | – | number of germinated spores relative to the non-treated plastic petri dish (Phakopsora pachyrhizi [1]): ≤ 50%
COc1ccccc1S(=O)(=O)n1ccc(-c2cc(F)c(Br)c(F)c2)n1 [compound 24] | – | – | – | – | degree of growth relative to the degree of growth in the non-treated well (Botrytis cinerea): ≤ 50%
Cc1ccc(S(=O)(=O)n2ccc(-c3cccc(F)c3)n2)cc1 [compound 28] | – | – | – | – | number of germinated spores relative to the non-treated plastic petri dish (Phakopsora pachyrhizi [1]): ≤ 50%
Cc1ccc(S(=O)(=O)n2ccc(-c3ccc(F)cc3)n2)cc1 [compound 29] | – | – | – | – | number of germinated spores relative to the non-treated plastic petri dish (Phakopsora pachyrhizi [1]): ≤ 50%
Cn1cnc(S(=O)(=O)n2ccc(-c3cccc(C(=O)NC4CC4)c3)n2)c1 [compound 31] | – | – | – | – | lesion area relative to the lesion area in the non-treated wheat (Septoria tritici): ≤ 30%
Cn1cnc(S(=O)(=O)n2ccc(-c3cc(F)c(Br)c(F)c3)n2)c1 [compound 32] | ≤ 30 | – | – | – | number of germinated spores relative to the non-treated plastic petri dish (Phakopsora pachyrhizi [1]): ≤ 50%
Cc1ccc(S(=O)(=O)n2ccc(-c3ccc4c(c3)OC(F)(F)O4)n2)cc1 [compound 61] | – | – | – | – | number of germinated spores relative to the non-treated plastic petri dish (Phakopsora pachyrhizi [4]): ≤ 50%
O=S(=O)(c1ccco1)n1ccc(-c2ccc(Cl)cc2)n1 [compound 79] | ≤ 30 | ≤ 30 | ≤ 50 | ≤ 50 | degree of growth relative to the degree of growth in the non-treated well (Cochliobolus miyabeanus): ≤ 50%
O=S(=O)(c1ccoc1)n1ccc(-c2ccc(Cl)cc2)n1 [compound 80] | ≤ 30 | ≤ 30 | ≤ 50 | ≤ 50 | degree of growth relative to the degree of growth in the non-treated well (Cochliobolus miyabeanus): ≤ 50%
O=S(=O)(c1cccs1)n1ccc(-c2ccc(Cl)cc2)n1 [compound 81] | ≤ 30 | ≤ 30 | ≤ 50 | ≤ 50 | degree of growth relative to the degree of growth in the non-treated well (Cochliobolus miyabeanus): ≤ 50%
O=S(=O)(c1cccs1)n1ccc(-c2ccc(I)cc2)n1 [compound 84] | ≤ 30 | ≤ 30 | ≤ 50 | – | degree of growth relative to the degree of growth in the non-treated well (Cochliobolus miyabeanus): ≤ 50%
O=S(=O)(c1ccoc1)n1ccc(-c2ccc(F)cc2)n1 [compound 89] | ≤ 30 | ≤ 30 | ≤ 50 | ≤ 50 | –
O=S(=O)(c1ccoc1)n1ccc(-c2ccc(F)c(F)c2)n1 [compound 92] | ≤ 30 | ≤ 30 | ≤ 50 | ≤ 50 | –
O=S(=O)(c1cccs1)n1ccc(-c2ccc(F)c(F)c2)n1 [compound 93] | ≤ 30 | ≤ 30 | ≤ 50 | ≤ 50 | –
O=S(=O)(c1cccs1)n1ccc(-c2cccc(F)c2)n1 [compound 96] | ≤ 30 | ≤ 30 | ≤ 50 | ≤ 50 | –
Cc1ccc(-c2ccn(S(=O)(=O)c3cccnc3)n2)cc1F [compound 97] | ≤ 30 | ≤ 30 | ≤ 50 | – | degree of growth relative to the degree of growth in the non-treated well (Cochliobolus miyabeanus): ≤ 50%
Cc1ccc(-c2ccn(S(=O)(=O)c3cccnc3)n2)cc1 [compound 99] | ≤ 30 | ≤ 30 | ≤ 50 | ≤ 50 | –
